Measurements taken from patent publication US20190094204A1, “MEMBRANE TRANSPORTER ASSAY AND METHODS OF USE” (Howard Hughes Medical Institute, priority 2017, published 2019).
Entries after “also recorded” stand apart in the source; their conditions may differ.

What was measured:
EAAT2 [1] = biological target: T1, EAAT2 (Homo sapiens, UniProt P43004); test: OSTA of EAAT2-mediated glutamate transport (cytosolic iGluSnFR); format: cell-based; conditions: for effect on EAAT2 activity (negative control): 10 mM sodium salicylate, same Na+/K+/glutamate stimulus
T1 construct: expressed in transfected cells; host or cells: HEK-293 (ATCC #CRL-1573)
T1 sequence (P43004 whole entry, species assumed, the tested form may be a part): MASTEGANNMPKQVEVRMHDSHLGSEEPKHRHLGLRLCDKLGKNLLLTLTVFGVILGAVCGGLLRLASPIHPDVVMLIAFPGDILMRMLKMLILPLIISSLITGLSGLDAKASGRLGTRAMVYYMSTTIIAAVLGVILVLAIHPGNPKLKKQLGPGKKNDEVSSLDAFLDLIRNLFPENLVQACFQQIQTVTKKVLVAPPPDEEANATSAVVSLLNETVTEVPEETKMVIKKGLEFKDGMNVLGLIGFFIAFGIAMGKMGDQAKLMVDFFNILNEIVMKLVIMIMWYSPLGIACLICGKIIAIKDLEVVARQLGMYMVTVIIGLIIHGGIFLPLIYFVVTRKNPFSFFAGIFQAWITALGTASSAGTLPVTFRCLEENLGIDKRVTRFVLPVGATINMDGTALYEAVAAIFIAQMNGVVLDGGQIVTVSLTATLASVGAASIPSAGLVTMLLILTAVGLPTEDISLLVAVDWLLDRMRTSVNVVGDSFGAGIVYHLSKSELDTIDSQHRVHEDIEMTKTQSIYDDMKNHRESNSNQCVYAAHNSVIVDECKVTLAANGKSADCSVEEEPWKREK

SLC26a3 = SLC26a3 (Homo sapiens, UniProt P40879); conditions: washout after 10 mM salicylate; HEK-293 cells expressing SLC26a3
Sequence of SLC26a3 (P40879 whole entry, species assumed): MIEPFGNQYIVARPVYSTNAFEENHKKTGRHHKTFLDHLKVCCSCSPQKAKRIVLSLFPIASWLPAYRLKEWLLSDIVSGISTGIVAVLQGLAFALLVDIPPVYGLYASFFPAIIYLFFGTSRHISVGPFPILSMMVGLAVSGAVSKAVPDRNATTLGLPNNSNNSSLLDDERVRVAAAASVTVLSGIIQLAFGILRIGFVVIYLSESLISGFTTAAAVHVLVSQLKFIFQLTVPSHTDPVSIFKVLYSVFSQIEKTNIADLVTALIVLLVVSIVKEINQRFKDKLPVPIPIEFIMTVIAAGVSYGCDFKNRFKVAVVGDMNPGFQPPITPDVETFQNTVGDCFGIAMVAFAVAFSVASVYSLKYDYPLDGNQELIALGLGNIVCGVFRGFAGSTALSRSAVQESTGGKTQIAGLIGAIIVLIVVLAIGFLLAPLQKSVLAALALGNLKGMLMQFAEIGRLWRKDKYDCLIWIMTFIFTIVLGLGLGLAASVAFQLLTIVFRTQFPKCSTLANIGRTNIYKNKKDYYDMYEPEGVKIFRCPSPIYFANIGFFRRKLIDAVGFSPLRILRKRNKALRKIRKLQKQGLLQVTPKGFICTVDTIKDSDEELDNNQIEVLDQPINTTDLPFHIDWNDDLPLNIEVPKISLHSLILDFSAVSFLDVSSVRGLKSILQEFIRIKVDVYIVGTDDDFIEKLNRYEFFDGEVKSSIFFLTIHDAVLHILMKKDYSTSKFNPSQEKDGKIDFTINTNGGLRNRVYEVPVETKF

EAAT2 [2] = biological target: T1, EAAT2; conditions: EAAT2 inhibitor; Tsukada et al., 2005 Neuropharmacology 48:479-491; cited from earlier work

Compound: O=C([O-])c1ccccc1O.[Na+] [salicylate, sodium salicylate]
- effect on EAAT2 activity (negative control) (EAAT2 [1]; HEK-293 cells): relative indifference
- effect on EAAT2 activity (negative control) (EAAT2 [1]; HEK-293 cells, listed as sodium salicylate): no effect on EAAT2 activity
- oscillating response after washout (SLC26a3): return to the initial oscillating response

Compound: N[C@H](C(=O)O)[C@H](OCc1cccc(NC(=O)c2ccc(C(F)(F)F)cc2)c1)C(=O)O [TFB-TBOA]
- onset and washout of EAAT2 inhibition (EAAT2 [1]; 2 μM TFB-TBOA): rapid onset and slower washout
- effect on EAAT2 glutamate oscillations (EAAT2 [1]; 2 μM TFB-TBOA, combined Na+/K+/glutamate stimulus (0-10 mM glutamate), HEK-293 cells): complete abrogation of oscillating signal; also recorded: completely abolished the oscillations
- IC50 (EAAT2 [2]): ~17 nM
